Laboratory results as given in patent US20250313593A1, “DIPEPTIDE DERIVATIVE COMPOSITION, PREPARATION METHOD THEREFOR, AND USE THEREOF” (BEIJING CONTINENT PHARMACEUTICALS CO., LTD, priority 2022, published 2025).
“Also recorded” adds a separate entry of the source.

Columns and labels:
[1] = Screening injection solvents for F573 (solvent effects, dissolution behavior); type: physicochemical; conditions: 2 ml:30 mg F573
Text: 1.1 for the Purpose of Preparing F573 Injection, Screening Injection Solvents

[2] = Stability of F573 solution before and after high-temperature sterilization; type: physicochemical; conditions: for Content / Related substances: propylene glycol/water (80%/20%), pH 4.0-5.0
Protocol: 1.2 Investigation of Stability of F573 Injection
F573 was dissolved in the solution of propylene glycol/water (80%/20%; pH was adjusted to 4.0-5.0), and the resulting mixture was sterilized at a high temperature of 120° C. for 15 min and then examined (the results are shown in Table A-2 below).

[3] = test system: liver failure; conditions: background; CN201110025509.8 and CN201110025516.8; cited from earlier work
[4] = test system: cells; conditions: background; cited from earlier work
[5] = After sterilization at 120° C. for 15 min
[6] = after the high-temperature sterilization

## CC(C)[C@H](NC(=O)OCc1ccccc1)C(=O)NC(CC(=O)O)C(=O)CF (stereo partly drawn) [F573, 3-(2-benzyloxycarbonylamino-3-methyl-butanamido)-5-fluoro-4-oxo-pentanoic acid]
[1]; Ethanol/water (10%/90%)
  Dissolution behavior: Turbid
[1]; Oil for injection, Vegetable oil
  Dissolution behavior: Turbid
[1]; Propylene glycol/water (50%/50%)
  Dissolution behavior: Turbid
[1]; Propylene glycol/water (80%/20%), adjusting pH to 4.0-5.0
  Dissolution behavior: completely dissolved; also recorded: Clarified
[1]; Water for injection, adjusting pH to 2.0-2.5
  Dissolution behavior: Turbid
[1]; Water for injection, adjusting pH to 4.0-5.0
  Dissolution behavior: Turbid
[2]; [5]
  Content: 8.82 mg/mL
  Related substances: 47.22%
[2]; Before sterilization
  Content: 16.08 mg/mL
  Related substances: 1.80%
[2]; [6]
  Increase in the related substances: about 50%
  Reduction in the F573 content: about 50%
[2]; aqueous solution, moist heat sterilization
  Stability in aqueous solution: poor stability
[3]
  Efficacy on liver failure: remarkable efficacy on liver failure
[4]
  Toxicity on cells: no significant toxicity on cells
